{
  "source": "ChEMBL document CHEMBL3525955",
  "about": "“Glucuronidation of the red clover isoflavone irilone by liver microsomes from different species and human UDP-glucuronosyltransferases” (Drug Metab Dispos, 2011)",
  "key": {"[1]": {"assay": "Drug metabolism in pig liver microsomes assessed as substrate inhibition of IRI-O-4'-monoglucuronide formation incubated for 5 mins prior to UDPGA addition measured after 90 mins by Eadie-Hoftsee plot analysis", "type": "ADME, Sus scrofa"}, "[2]": {"assay": "Drug metabolism in pig liver microsomes assessed as IRI-O-5-monoglucuronide formation incubated for 5 mins prior to UDPGA addition measured after 90 mins by Eadie-Hoftsee plot analysis", "type": "ADME, Sus scrofa", "details": "1.5 h; call rule not given here"}, "[3]": {"molecular_target": "T1, UDP-glucuronosyltransferase 1A1 (Homo sapiens, UniProt P22309)", "T1 sequence (P22309 whole entry)": "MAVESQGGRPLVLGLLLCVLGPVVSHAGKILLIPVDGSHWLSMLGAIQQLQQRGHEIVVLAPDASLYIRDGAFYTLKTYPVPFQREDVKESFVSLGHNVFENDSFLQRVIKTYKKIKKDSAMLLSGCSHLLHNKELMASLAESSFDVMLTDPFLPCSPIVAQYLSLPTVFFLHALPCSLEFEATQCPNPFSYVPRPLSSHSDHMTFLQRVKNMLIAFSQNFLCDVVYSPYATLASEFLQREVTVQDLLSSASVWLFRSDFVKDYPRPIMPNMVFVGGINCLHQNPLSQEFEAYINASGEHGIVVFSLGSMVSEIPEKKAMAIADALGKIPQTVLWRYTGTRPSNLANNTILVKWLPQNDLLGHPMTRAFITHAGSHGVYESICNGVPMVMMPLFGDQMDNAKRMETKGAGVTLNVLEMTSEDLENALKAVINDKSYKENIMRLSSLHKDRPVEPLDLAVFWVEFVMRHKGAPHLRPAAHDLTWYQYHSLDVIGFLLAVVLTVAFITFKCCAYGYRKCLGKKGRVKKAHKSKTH", "assay": "Substrate inhibition of human recombinant UGT1A1 assessed as IRI-O-4'-monoglucuronide formation incubated for 5 mins prior to UDPGA addition measured after 90 mins by Eadie-Hoftsee plot analysis", "type": "ADME"}, "[4]": {"molecular_target": "T2, UDP-glucuronosyltransferase 1A10 (Homo sapiens, UniProt Q9HAW8)", "T2 sequence (Q9HAW8 whole entry)": "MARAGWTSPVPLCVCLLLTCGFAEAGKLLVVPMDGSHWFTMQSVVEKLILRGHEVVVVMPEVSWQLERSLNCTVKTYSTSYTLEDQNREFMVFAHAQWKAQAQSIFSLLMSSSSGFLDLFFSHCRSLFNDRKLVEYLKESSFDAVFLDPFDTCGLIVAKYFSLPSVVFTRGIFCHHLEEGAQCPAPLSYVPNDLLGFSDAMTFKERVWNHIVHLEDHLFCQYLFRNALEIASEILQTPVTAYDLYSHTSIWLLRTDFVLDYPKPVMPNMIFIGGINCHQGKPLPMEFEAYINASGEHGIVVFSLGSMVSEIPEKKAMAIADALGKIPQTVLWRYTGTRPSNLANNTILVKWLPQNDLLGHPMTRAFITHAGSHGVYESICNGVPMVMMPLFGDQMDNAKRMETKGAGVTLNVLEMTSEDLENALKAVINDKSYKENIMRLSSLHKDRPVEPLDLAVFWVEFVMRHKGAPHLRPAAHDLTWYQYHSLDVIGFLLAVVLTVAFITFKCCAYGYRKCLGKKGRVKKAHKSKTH", "assay": "Substrate inhibition of human recombinant UGT1A10 assessed as IRI-O-5-monoglucuronide formation incubated for 5 mins prior to UDPGA addition measured after 90 mins by Eadie-Hoftsee plot analysis", "type": "ADME"}, "[5]": {"molecular_target": "T3, UDP-glucuronosyltransferase 2B15 (Homo sapiens, UniProt P54855)", "T3 sequence (P54855 whole entry)": "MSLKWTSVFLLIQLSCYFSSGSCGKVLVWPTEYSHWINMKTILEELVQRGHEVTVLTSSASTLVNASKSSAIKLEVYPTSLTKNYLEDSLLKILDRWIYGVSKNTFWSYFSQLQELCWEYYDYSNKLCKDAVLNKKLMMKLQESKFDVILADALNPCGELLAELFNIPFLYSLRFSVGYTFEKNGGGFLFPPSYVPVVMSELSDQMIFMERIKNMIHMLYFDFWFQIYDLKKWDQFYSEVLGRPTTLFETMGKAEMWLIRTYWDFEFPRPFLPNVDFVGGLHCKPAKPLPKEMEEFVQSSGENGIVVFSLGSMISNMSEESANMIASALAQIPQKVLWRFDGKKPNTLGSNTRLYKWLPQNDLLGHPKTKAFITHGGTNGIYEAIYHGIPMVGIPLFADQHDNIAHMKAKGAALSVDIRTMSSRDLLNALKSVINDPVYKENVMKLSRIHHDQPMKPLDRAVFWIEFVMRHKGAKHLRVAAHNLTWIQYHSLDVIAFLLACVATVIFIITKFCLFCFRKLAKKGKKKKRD", "assay": "Drug metabolism assessed as human recombinant UGT2B15-mediated glucuronidation incubated for 5 mins prior to UDPGA addition measured after 90 mins by HPLC-DAD analysis", "type": "ADME", "details": "recombinant enzyme, 1.5 h"}, "[6]": {"molecular_target": "T4, UDP-glucuronosyltransferase 1A9 (Homo sapiens, UniProt O60656)", "T4 sequence (O60656 whole entry)": "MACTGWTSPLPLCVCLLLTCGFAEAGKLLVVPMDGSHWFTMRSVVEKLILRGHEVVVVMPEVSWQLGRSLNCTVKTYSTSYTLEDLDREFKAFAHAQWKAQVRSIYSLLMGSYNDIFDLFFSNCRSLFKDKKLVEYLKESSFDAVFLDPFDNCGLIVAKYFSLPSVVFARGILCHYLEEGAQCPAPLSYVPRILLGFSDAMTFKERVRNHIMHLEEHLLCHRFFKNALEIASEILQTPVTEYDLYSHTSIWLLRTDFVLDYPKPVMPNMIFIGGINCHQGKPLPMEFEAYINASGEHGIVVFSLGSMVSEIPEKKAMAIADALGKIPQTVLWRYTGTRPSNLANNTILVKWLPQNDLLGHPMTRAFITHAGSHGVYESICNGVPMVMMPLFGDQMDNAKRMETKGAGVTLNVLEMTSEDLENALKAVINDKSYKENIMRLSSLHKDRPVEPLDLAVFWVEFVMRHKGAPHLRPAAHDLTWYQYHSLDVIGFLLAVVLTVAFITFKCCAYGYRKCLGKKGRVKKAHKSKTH", "assay": "Substrate inhibition of human recombinant UGT1A9 assessed as IRI-O-5-monoglucuronide formation incubated for 5 mins prior to UDPGA addition measured after 90 mins by Eadie-Hoftsee plot analysis", "type": "ADME"}, "[7]": {"molecular_target": "T2, UDP-glucuronosyltransferase 1A10", "assay": "Drug metabolism assessed as human recombinant UGT1A10-mediated irilone-O-4'-monoglucuronide formation incubated for 5 mins prior to UDPGA addition measured after 90 mins by HPLC-DAD analysis", "type": "ADME", "details": "recombinant enzyme, 1.5 h"}, "[8]": {"assay": "Drug metabolism in pig liver microsomes assessed as IRI-O-4'-monoglucuronide formation incubated for 5 mins prior to UDPGA addition measured after 90 mins by Eadie-Hoftsee plot analysis", "type": "ADME, Sus scrofa", "details": "1.5 h"}, "[9]": {"test_system": "Liver microsome", "assay": "Intrinsic clearance in Sprague-Dawley rat liver microsomes incubated for 5 mins prior to UDPGA addition measured after 90 mins", "type": "ADME", "details": "1.5 h"}},
  "data": [
    {"smiles": "O=c1c(-c2ccc(O)cc2)coc2cc3c(c(O)c12)OCO3", "values": [
      {"measurement": "Ki", "setting": "[1]", "result": 49.1, "unit": "µM"},
      {"measurement": "Km", "setting": "[2]", "result": 16.8, "unit": "µM"},
      {"measurement": "Vmax", "setting": "[2]", "result": 0.28, "unit": "nmol/mg/min"},
      {"measurement": "Ki", "setting": "[3]", "result": 14.1, "unit": "µM"},
      {"measurement": "Ki", "setting": "[4]", "result": "Not Active"},
      {"measurement": "Drug metabolism", "setting": "[5]", "result": "metabolite_not_detected"},
      {"measurement": "Ki", "setting": "[6]", "result": 534, "unit": "µM"},
      {"measurement": "Drug metabolism", "setting": "[7]", "result": "metabolite_detected"},
      {"measurement": "Km", "setting": "[8]", "result": 88.6, "unit": "µM"},
      {"measurement": "Vmax", "setting": "[8]", "result": 4.87, "unit": "nmol/mg/min"},
      {"measurement": "CLH", "setting": "[9]", "result": 51000, "unit": "µL/min/mg"}
    ]}
  ]
}
